According to patent US20250197374A1, “WEE1 DEGRADING COMPOUNDS AND USES THEREOF” (BRISTOL-MYERS SQUIBB COMPANY, priority 2023, published 2025):

What was measured:
Assay type in all cases: cell-based
WEE1 = target: T1, WEE1 (Homo sapiens, UniProt P30291+Q96SW2); test: WEE1-ePL degradation assay (293T-LentiX, InCELL Hunter luminescence, 4 hr); details: for DC50: LentiX-HEK293T cells expressing WEE1-ePL, 4 hr incubation, read-out: 293T-LentiX WEE1-ePL Degradation 4 hr EC50; for 293T-LentiX WEE1-ePL Degradation 4 hr YMin (%): lower limit of fit, % of DMSO control signal remaining
T1 construct: C-terminal ePL-tagged (DiscoverX, Fremont, CA) full-length WEE1 expression construct; expressed in transfected cells; host or cells: LentiX-HEK293T (Invitrogen), lentivirally transduced; the cells also over-express GSPT1-GN
Summary of the method: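 LentiX-HEK293T cells expressing C-terminally ePL-tagged full-length WEE1 plus non-degradable GSPT1-GN (G575N, N-terminal 158 aa truncated). Treated 4 h at 37 °C with a 10-point, 3-fold series from 1 or 10 µM, then read by InCELL Hunter luminescence. EC50 from four-parameter logistic fit, Ymax set by DMSO control.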

MKN45 cells = test: MKN45 cell proliferation assay (Cell-Titer-Glo, 120 hr); details: for EC50: Homo sapiens, MKN-45, 120 h, read-out: MKN45 Cell Prolif. 120 hr EC50; for MKN45 Cell Prolif. 120 hr YMin (%): minimal percent of DMSO control observed
Summary of the method: (§1)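 MKN45 (400/well) and MDA-MB-231 (800/well) cells in RPMI with 10% FBS were exposed to 10-point half-log doses from 1 or 10 uM (0.1% DMSO) for 120 h at 37 °C. Viability was read by CellTiter-Glo luminescence. EC50 came from blank-subtracted, %DMSO four-parameter fits, with Ymin-obs as the lowest %DMSO observed.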

MDA-MB-231 cells = test: MDA-MB-231 cell proliferation assay (Cell-Titer-Glo, 120 hr); details: for EC50: Homo sapiens, MDA-MB-231, 120 h, read-out: MDA-MB 231 Cell Prolif. 120 hr EC50; for MDA-MB 231 Cell Prolif. 120 hr YMin (%): minimal percent of DMSO control observed
Summary of the method: as §1

T1 sequence (P30291 whole entry): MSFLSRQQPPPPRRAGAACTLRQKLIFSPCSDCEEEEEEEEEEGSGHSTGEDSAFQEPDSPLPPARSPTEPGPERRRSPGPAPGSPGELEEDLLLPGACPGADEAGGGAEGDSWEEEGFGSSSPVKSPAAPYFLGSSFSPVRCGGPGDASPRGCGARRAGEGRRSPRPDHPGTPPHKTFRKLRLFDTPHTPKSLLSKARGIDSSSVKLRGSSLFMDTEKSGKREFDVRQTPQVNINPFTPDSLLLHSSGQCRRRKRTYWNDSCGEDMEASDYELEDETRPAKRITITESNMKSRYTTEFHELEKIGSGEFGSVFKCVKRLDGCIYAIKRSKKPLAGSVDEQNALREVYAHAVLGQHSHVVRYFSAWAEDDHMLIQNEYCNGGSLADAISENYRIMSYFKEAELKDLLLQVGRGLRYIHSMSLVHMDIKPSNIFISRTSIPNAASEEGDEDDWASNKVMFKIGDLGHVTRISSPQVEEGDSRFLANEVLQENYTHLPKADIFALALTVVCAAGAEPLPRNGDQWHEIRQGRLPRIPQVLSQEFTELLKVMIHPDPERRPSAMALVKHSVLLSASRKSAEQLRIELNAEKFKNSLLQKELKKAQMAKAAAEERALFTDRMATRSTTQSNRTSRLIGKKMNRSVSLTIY
T1 sequence (Q96SW2 whole entry): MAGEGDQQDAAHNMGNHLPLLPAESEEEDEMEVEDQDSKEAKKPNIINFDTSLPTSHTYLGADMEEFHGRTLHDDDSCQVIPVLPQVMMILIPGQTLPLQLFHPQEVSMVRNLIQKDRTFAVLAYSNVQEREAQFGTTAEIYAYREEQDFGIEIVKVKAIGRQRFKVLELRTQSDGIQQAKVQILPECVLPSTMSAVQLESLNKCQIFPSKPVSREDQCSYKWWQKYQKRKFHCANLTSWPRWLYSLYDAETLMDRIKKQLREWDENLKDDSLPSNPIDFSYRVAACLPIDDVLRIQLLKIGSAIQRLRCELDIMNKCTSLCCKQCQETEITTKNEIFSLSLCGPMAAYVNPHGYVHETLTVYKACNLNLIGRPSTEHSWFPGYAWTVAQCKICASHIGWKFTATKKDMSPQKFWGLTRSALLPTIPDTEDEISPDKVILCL
T1 sequence (Q16531 whole entry partner): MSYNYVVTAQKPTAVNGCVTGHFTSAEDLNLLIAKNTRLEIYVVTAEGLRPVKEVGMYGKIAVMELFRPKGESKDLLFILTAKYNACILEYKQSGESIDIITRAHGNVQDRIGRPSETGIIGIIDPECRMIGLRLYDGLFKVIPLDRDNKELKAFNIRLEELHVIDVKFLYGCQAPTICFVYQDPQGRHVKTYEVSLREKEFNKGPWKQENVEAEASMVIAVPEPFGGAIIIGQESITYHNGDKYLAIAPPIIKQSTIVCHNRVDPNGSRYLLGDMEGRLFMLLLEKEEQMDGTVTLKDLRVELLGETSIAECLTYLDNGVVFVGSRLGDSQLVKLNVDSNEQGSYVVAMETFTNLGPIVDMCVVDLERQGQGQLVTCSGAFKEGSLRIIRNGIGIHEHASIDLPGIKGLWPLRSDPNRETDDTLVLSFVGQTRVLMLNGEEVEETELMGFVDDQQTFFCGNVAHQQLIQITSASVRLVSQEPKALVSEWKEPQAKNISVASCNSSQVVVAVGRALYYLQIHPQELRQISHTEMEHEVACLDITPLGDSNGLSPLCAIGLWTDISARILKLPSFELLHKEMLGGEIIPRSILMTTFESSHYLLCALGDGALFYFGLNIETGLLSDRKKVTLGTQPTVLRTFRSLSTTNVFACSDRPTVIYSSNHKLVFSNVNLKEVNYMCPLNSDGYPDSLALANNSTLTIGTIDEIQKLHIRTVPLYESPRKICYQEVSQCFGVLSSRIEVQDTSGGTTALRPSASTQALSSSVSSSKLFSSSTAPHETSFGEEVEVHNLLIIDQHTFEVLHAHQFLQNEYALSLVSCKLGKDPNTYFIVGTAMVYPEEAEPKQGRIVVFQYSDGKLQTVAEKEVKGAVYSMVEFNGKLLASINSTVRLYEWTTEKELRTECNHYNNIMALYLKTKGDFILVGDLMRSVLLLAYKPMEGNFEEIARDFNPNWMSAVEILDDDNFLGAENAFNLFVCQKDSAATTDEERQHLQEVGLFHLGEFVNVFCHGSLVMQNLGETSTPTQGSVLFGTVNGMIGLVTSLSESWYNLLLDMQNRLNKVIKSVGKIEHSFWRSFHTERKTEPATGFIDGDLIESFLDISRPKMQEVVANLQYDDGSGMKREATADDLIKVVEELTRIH

| DC50 (WEE1) [nM] | 293T-LentiX WEE1-ePL Degradation 4 hr YMin (%) (WEE1) | EC50 (MKN45 cells) [nM] | EC50 (MDA-MB-231 cells) [nM] | SMILES | MKN45 Cell Prolif. 120 hr YMin (%) (MKN45 cells) | MDA-MB 231 Cell Prolif. 120 hr YMin (%) (MDA-MB-231 cells) |
| --- | --- | --- | --- | --- | --- | --- |
| 1 | 28.1 | 2 | 33 | COC[C@@H]1CN(Cc2cc(F)c3nc(N4CCN(CC(F)(F)F)CC4)ncc3c2)C[C@H]1Oc1ccc2c(c1)CN([C@H]1CCC(=O)NC1=O)C2=O [Example 35, (3S)-3-(5-{[(3S,4S)-1-({8-fluoro-2-[4-(2,2,2-trifluoroethyl)piperazin-1-yl]quinazolin-6-yl}methyl)-4-(methoxymethyl)pyrrolidin-3-yl]oxy}-1-oxo-2,3-dihydro-1H-isoindol-2-yl)piperidine-2,6-dione] | 10.0 | 16.7 |
|  | 21.3 | 1 | 18 | COC[C@@H]1CN(Cc2ccc3nc(N4CCN(C5COC5)CC4)ccc3c2)C[C@H]1Oc1ccc2c(c1)CN([C@H]1CCC(=O)NC1=O)C2=O [Example 104, (3S)-3-(5-{[(3S,4S)-4-(methoxymethyl)-1-({2-[4-(oxetan-3-yl)piperazin-1-yl]quinolin-6-yl}methyl)pyrrolidin-3-yl]oxy}-1-oxo-2,3-dihydro-1H-isoindol-2-yl)piperidine-2,6-dione] | 8.2 | 42.5 |

The next lines start with the compound.

| SMILES | DC50 (WEE1) [nM] | 293T-LentiX WEE1-ePL Degradation 4 hr YMin (%) (WEE1) | EC50 (MKN45 cells) [nM] | EC50 (MDA-MB-231 cells) [nM] | MKN45 Cell Prolif. 120 hr YMin (%) (MKN45 cells) | MDA-MB 231 Cell Prolif. 120 hr YMin (%) (MDA-MB-231 cells) |
| --- | --- | --- | --- | --- | --- | --- |
| COC[C@@H]1CN(Cc2cc(F)c3ncc(N4CCOCC4)cc3c2)C[C@H]1Oc1ccc2c(c1)CN([C@H]1CCC(=O)NC1=O)C2=O [Example 30, (S)-3-(5-(((3S,4S)-1-((8-fluoro-3-morpholinoquinolin-6-yl)methyl)-4-(methoxymethyl)pyrrolidin-3-yl)oxy)-1-oxoisoindolin-2-yl)piperidine-2,6-dione] | 1 | 27.9 | 1 | 14 | 7.8 | 12.7 |
| COC[C@@H]1CN(Cc2cc(F)c3nc(N4CCOC5(COC5)C4)ncc3c2)C[C@H]1Oc1ccc2c(c1)CN([C@H]1CCC(=O)NC1=O)C2=O [Example 80, (3S)-3-(5-{[(3S,4S)-1-[(2-{2,5-dioxa-8-azaspiro[3.5]nonan-8-yl}-8-fluoroquinazolin-6-yl)methyl]-4-(methoxymethyl)pyrrolidin-3-yl]oxy}-1-oxo-2,3-dihydro-1H-isoindol-2-yl)piperidine-2,6-dione] | 2 | 29.7 | 2 | 42 | 10.3 | 23.5 |
| Cc1cc([C@@H]2CN(Cc3cc(F)c4nc(C5CCOCC5)ccc4c3)C[C@H]2Oc2ccc3c(c2)CN([C@H]2CCC(=O)NC2=O)C3=O)cc(C)n1 (relative stereo) [Example 127, (3S)-3-(5-{[(3S*,4R*)-4-(2,6-dimethylpyridin-4-yl)-1-{[8-fluoro-2-(oxan-4-yl)quinolin-6-yl]methyl}pyrrolidin-3-yl]oxy}-1-oxo-2,3-dihydro-1H-isoindol-2-yl)piperidine-2,6-dione] | 3 | 20.2 | 12 | 278 | 9.8 | 40.1 |
